Legend:
[1] = test system: seeded sfEBMs derived from HESC colonies; assay: S18 treatment of seeded serum free embryoid bodies (sfEBMs), morphology and DAPI staining; format: cell-based, human
Text: sfEBMs were derived from domed HESC colonies, grown in suspension for 24 days with one passage, and seeded to polyornithine/laminin coated chamber slides in DMEM/F12, supplemented with 1×N2 (Gibco), and 1% FCS.
Apoptosis in seeded serum free embryoid bodies was monitored by morphological observation of cell death and DAPI staining to reveal apoptotic nuclei. Apoptotic nuclei were observed as obviously fragmented and degenerating nuclei, with small punctuate patterns of DAPI staining. Rosette regions from essentially serum free embryoid bodies in suspension were passaged further in the same medium, either withdrawing S18 or culturing the embryoid bodies for an additional 4 to 8 days in the presence of S18. Rosette regions were then seeded onto polyornithine/laminin coated slides for analysis of proliferation and differentiation to neural lineages.

Oct-4 = Oct-4 immunoblotting of EB8 stage cells incubated with S18; format: cell-based, mouse; conditions: EB8 stage cells incubated with 75 μM S18 for 24 hours
Description: (§1) In vitro differentiating ES cells at stage EB8 were incubated for […] with 75 μM S18, or 35 μM N-acyl sphingosine or other ceramide analogs. Protein was isolated from cells incubated with S18 for 24 hours and from untreated cells, separated by SDS-PAGE, and the expression of Oct-4 was analyzed by immunoblotting.

[2] = test system: differentiating ES cells (NPs), PAR-4; assay: S18-induced apoptosis (TUNEL) in NPs after PAR-4 antisense knockdown or PAR-4-RFP overexpression; format: cell-based, mouse
Description: For construction of PAR-4-REP cDNA, RT-PCR was performed with the oligonucleotide primer pair sense 5′atggcgaccggcggctatcg3′ (SEQ ID NO:14) and antisense 5′ctaccttgtcagctgcccaacaac3′(SEQ ID NO:15), using the first strand cDNA generated from embryoid bodies (EB8 stage) as template for the amplification reaction. The primers were endowed with the restriction enzyme cleaving sites Eco47III (sense) and SaII (antisense) for ligation of the PAR-4 specific amplification product into the multiple cloning site of HcRFP, a vector that encodes a far-red shifted variant of red fluorescent protein (Clontech). Differentiating ES cells at the NP1 stage were transfected with the PAR-4-RFP construct using the lipofectamine 2000 procedure according to the manufacturer's instructions (Invitrogen). The transfected cells were incubated in DMEM F12 (50/50), supplemented with 1×N2 and 20 ng/ml FGF-2, and the TUNEL assay or immunostainings were performed after 48 hours of incubation and NP formation. For depletion of ceramide, differentiating ES cell were incubated with 25 μM fumonisin B1 or 50 nM myriocin 48 hours prior to transfection with the PAR-4-RFP vector, and the inhibitor maintained in the medium throughout the post-transfection period. For induction of apoptosis, the novel ceramide analog S18 (40-100 μM), N-acetyl sphingosine (C2-ceramide, 10-30 μM), or natural ceramide isolated from EBs (0.5-1.5 μM) was added 48 hours after transfection with the PAR-4-RFP cDNA, and the degree of apoptosis quantified after 15-20 hours using TUNEL assays with paraformaldehyde-fixed cells as described above.
Endogenous expression of PAR-4 was suppressed by transfection of differentiating ES cells at the NP1 stage with 2 nmoles (per well in 24 wells plate) of the morpholino-based antisense oligonucleotide 5′cgatagccgccggtcgccatgttcc3′(SEQ ID NO:16) (see Guo et al., 1998, Nature Med., 4:957-962; Guo et al., 2001 Brain Res, 903:13-25) following the instructions of the manufacturer (GeneTools) in 0.5 ml of serum-free DMEM/F-12, 1XN2 supplemented with 20 ng/ml FGF-2. For induction of apoptosis, the novel ceramide analog S18 (40-100), N-acetyl sphingosine (C2 ceramide, […], or natural ceramide isolated from EBs (0.5-1.5 μM) was added 48 hours after transfection with the anti-PAR-4 morpholino, and the degree of apoptosis quantified after 15-20 hours using TUNEL assays with paraformaldehyde-fixed cells as described above.

EB8-derived cells = assay: Injection of ceramide analog treated EB8-derived cells into mouse brain, teratoma formation; format: in vivo, C57BL6 mice
Description: as §1
Prior to injection into the mouse brain, ES cells were labeled with Vybrant-DiI (rhodamine fluorescence) for permanent vital staining and were mixed with India ink in order to track the injection channel and cell migration/tissue integration. 1×10^4 of the untreated ES-J1 cells were injected, while 2×10^4 of the S18-treated cells were injected in order to control for the percentage of cells lost to apoptosis. The ES cells were injected into the right brain hemisphere (bregma—1.5 mm, 1 mm lateral of central suture, 2.0 mm deep) of 8-10 day old C57BL6 mice using a Hamilton syringe. After 7-21 days, the mice were sacrificed, the brain isolated and fixed with 10% PBS-buffered formalin. The brains were Vibratome sectioned at 100 μm. The distribution of the injected cells was determined by fluorescence microscopy.

CCCCCCCC/C=C\CCCCCCCC(=O)NC(CO)CO [S18, N-(2-hydroxy-1-(hydroxymethyl)ethyl)-oleoylamide]
time until effect was observed ([1]; 6, 8 or 10 μM S18): ≤ 24 h
effect on neural rosette structures ([1]; 6, 8 or 10 μM S18 for 36 hours): did not appear to be adversely affected
induction of apoptosis in the culture ([1]; 6, 8 or 10 μM S18 for 36 hours): induced apoptosis of a large proportion of the culture
cell death ([1]; 36 hours exposure to 6 μM S18): a high proportion of cells within these cultures have been killed
cell death ([1]; 36 hours exposure to 8 μM S18): a high degree of cell death is apparent
Oct-4 immunostaining relative to untreated control cells (Oct-4): 25%
decrease in Oct-4 protein levels (Oct-4): 75%
ceramide analog-induced apoptosis in untransfected or mock (RFP)-transfected cells ([2]; 40 μM S18): no or only a low degree
number of apoptotic cells ([2]; 80 μM S18, control morpholino-transfected and untransfected NPs): more than 80%
apoptosis in PAR-4-RFP transfected cells ([2]; myriocin-treated ES cells transfected at NP1 stage, 40 μM S18): apoptosis was observed
teratoma formation (EB8-derived cells; EB8-derived cells treated with S18, injected into mouse brain, ten days after injection): did not show teratoma formation
migration and integration of injected cells (EB8-derived cells; S18-treated EB8-derived cells, Vybrant diI stained, host killed after 21 days): migrated to the hippocampus, and integrated into the host's brain tissue

Source: patent publication US7445931B2, “Compositions and methods for enrichment of neural stem cells using ceramide analogs” (Bresagen, Inc., priority 2002, dated 2008)
